Experimental data published in US20240352000A1, “NOVEL PYRIMIDINE-2,4-DIAMINE DERIVATIVES, PREPARATION METHOD THEREFOR, AND PHARMACEUTICAL COMPOSITION CONTAINING SAME AS ACTIVE INGREDIENT FOR PREVENTION OR TREATMENT OF CANCER” (KOREA RESEARCH INSTITUTE OF CHEMICAL TECHNOLOGY, priority 2021, published 2024).

Tests used:
Ba/F3 EGFR del19 = assay: CellTiter-Glo cell viability, Ba/F3 EGFR del19; type: cell-based; details: 72 hours
Method: (§1) An experiment to measure the activity of the compounds of the present invention against the mutant Ba/F3 EGFR cell line was performed as follows using the CellTiter-Glo system sold by Promega. The CellTiter-Glo assay is a method to confirm the cell viability by measuring ATP present in cells in cell culture. For the Ba/F3 EGFR del19, Ba/F3 EGFR del19/T790M, Ba/F3 del19/T790M/C797S mutant cell line, a cell line provided by Crown Bioscience was purchased and used. The Ba/F3 EGFR del19, Ba/F3 EGFR del19/T790M, Ba/F3 del19/T790M/C797S mutant cell line was cultured in RPMI containing 10% FBS and 1% penicillin-streptomycin with 1 μg of puromycin in an incubator at 37° C. and 5% CO2.
(§2) Analysis of the inhibitory ability effect of the compounds against EGFR was conducted according to the following analysis reaction recipe.
(§3) 2500 cells/90 μL were passaged and cultured in a 96-well cell culture plate, and after 24 hours, treated with the compound represented by Formula 1 at a concentration of 0, 0.01, 0.03, 0.1, 0.3, 1, 3, and 10 (μM). After reaction for 72 hours, the plate treated with the compound was left at room temperature for 30 minutes, then further treated with 100 μl of reagent, and shaken at room temperature for 10 minutes. Finally, the ratio of fluorescence values at 570 nm was obtained using the equipment to quantitatively measure and confirmed the inhibitory ability of the compounds. The measurement values measured at eight compound concentrations were analyzed using the Prism program (version 5.01, Graphpad Software, Inc.), and the IC50 value, which is an indicator of the inhibitory ability of the compound, was calculated.

Ba/F3 EGFR del19/T790M = assay: CellTiter-Glo cell viability, Ba/F3 EGFR del19/T790M; type: cell-based; details: 72 hours
Method: as §1, §2, §3

[1] = system: Ba/F3 EGFR del19/T790M/C797S; assay: CellTiter-Glo cell viability, Ba/F3 EGFR del19/T790M/C797S; type: cell-based; details: 72 hours
Method: as §1, §2, §3

Ba/F3 EGFR L858R = assay: CellTiter-Glo cell viability, Ba/F3 EGFR L858R; type: cell-based; details: 72 hours
Method: (§4) An experiment to measure the activity of the compounds of the present invention against the mutant Ba/F3 EGFR cell line was performed as follows using the CellTiter-Glo system sold by Promega. The CellTiter-Glo assay is a method to confirm the cell viability by measuring ATP present in cells in cell culture. The Ba/F3 EGFR L858R, Ba/F3 EGFR L858R/T790M, Ba/F3 EGFR L858R/T790M/C797S mutant cell line was used. The Ba/F3 EGFR L858R, Ba/F3 EGFR L858R/T790M, and Ba/F3 EGFR L858R/T790M/C797S mutant cell lines was cultured in RPMI containing 10% FBS and 1% penicillin-streptomycin with 1 μg of puromycin in an incubator at 37° C. and 5% CO2.
as §2
as §3, with “μl” for “μL”

Ba/F3 EGFR L858R/T790M = assay: CellTiter-Glo cell viability, Ba/F3 EGFR L858R/T790M; type: cell-based; details: 72 hours
Method: as §4, §2
as §3, with “μl” for “μL”

[2] = system: Ba/F3 EGFR L858R/T790M/C797S; assay: CellTiter-Glo cell viability, Ba/F3 EGFR L858R/T790M/C797S; type: cell-based; details: 72 hours
Method: as §4, §2
as §3, with “μl” for “μL”

EGFR A763_Y764insFHEA = EGFR A763_Y764insFHEA (Homo sapiens (Human), UniProt P00533, INS763FHEA); assay: HTRF enzyme assay, EGFR Ex20 insertion mutant enzyme; type: biochemical; details: recombinant enzyme, 37° C. 2 hours
Sequence of EGFR A763_Y764insFHEA (P00533 other isoform, or with tags, fused parts or gaps del 1-694/ins FHEA behind 763 limits assumed): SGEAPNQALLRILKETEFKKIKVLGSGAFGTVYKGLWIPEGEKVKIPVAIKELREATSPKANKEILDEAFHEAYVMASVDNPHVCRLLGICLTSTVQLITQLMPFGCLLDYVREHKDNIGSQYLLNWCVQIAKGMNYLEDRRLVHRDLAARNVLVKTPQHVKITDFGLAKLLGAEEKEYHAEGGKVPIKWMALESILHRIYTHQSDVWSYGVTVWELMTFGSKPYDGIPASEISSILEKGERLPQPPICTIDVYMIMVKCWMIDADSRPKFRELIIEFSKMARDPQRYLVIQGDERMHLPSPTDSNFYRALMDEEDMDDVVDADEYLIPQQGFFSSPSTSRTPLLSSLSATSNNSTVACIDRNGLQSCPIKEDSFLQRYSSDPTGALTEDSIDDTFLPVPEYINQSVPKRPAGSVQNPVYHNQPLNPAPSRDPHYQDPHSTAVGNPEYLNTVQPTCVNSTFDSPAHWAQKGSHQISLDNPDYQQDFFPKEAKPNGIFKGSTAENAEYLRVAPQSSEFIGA
Method: An experiment to measure the activity of the compounds of the present invention against EGFR mutant enzymes was performed as follows using the HTRF system sold by Cisbio. For the EGFR mutant enzyme, EGFR A763_Y764insFHEA enzyme, a recombinant protein provided by SignalChem was purchased and used.
(§5) The composition of the assay buffer used for measuring the activity was 50 mM Tris-HCl pH 7.5, 100 mM NaCl, 7.5 mM MgCl2, 3 mM KCl, 0.01% Tween 20, 0.1% BSA, and 1 mM DTT. Here, an enzyme reaction was performed using ATP at a concentration of […] and a peptide substrate labeled with biotin at a concentration of […]. Analysis of the inhibitory effect of the compounds against the EGFR activity was conducted according to the following analysis reaction recipe. • Component 1: 4 μL of an EGFR mutant enzyme • Component 2: 2 μL of a compound solution • Component 3: 4 μL of ATP and a peptide labeled with biotin
(§6) The enzyme reaction was started by first mixing Component 1 and Component 2 and then adding Component 3. After reaction at 37° C. for 2 hours, […] of measurement solution consisting of streptavidin-XL665 and europium-labeled anti-phosphotyrosine antibody provided by Cisbio was added to the enzyme reaction solution and reacted at room temperature for 1 hour. Finally, the ratio of fluorescence values at 615 nm and 665 nm was obtained using the Envision equipment from Perkin-Elmer to quantitatively measure the enzyme activity and confirmed the inhibitory ability of the compounds. The measurement values measured at seven compound concentrations were analyzed using the Prism program (version 5.01, Graphpad Software, Inc.), and the IC50 value, which is an indicator of the inhibitory ability of the compound, was calculated.

[3] = system: Ba/F3 EGFR V769_D770insASV; assay: CellTiter-Glo cell growth, Ba/F3 EGFR Ex20 insertion mutant; type: cell-based; details: 72 hours
Method: as §1, with “the” for “the mutant”, “EGFR V769_D770insASV mutant” for “EGFR”, “EGFR V769_D770insASV” for “EGFR del19, Ba/F3 EGFR del19/T790M, Ba/F3 del19/T790M/C797S”, “1 μg/ml” for “1 μg”
Analysis of the inhibitory ability effect of the compounds against the EGFR mutant cell growth was conducted according to the following analysis reaction recipe.
as §3, with “1000 cells/100 μL were” for “2500 cells/90 μL were”, “[…]. After reaction” for “and 10 (μM). After reaction”, “with 100 μL of reagent,” for “with 100 μl of reagent,”, “confirmed the cell growth inhibitory ability” for “confirmed the inhibitory ability”, “of the cell growth inhibitory ability” for “of the inhibitory ability”

HER2 A775_G776insYVMA = HER2 A775_G776insYVMA (Homo sapiens (Human), UniProt P04626, INS775YVMA); assay: HTRF enzyme assay, HER2 mutant enzyme; type: biochemical; details: recombinant enzyme, 37° C. 2 hours
Sequence of HER2 A775_G776insYVMA (P04626 other isoform, or with tags, fused parts or gaps del 1-675/ins YVMA behind 775 limits assumed): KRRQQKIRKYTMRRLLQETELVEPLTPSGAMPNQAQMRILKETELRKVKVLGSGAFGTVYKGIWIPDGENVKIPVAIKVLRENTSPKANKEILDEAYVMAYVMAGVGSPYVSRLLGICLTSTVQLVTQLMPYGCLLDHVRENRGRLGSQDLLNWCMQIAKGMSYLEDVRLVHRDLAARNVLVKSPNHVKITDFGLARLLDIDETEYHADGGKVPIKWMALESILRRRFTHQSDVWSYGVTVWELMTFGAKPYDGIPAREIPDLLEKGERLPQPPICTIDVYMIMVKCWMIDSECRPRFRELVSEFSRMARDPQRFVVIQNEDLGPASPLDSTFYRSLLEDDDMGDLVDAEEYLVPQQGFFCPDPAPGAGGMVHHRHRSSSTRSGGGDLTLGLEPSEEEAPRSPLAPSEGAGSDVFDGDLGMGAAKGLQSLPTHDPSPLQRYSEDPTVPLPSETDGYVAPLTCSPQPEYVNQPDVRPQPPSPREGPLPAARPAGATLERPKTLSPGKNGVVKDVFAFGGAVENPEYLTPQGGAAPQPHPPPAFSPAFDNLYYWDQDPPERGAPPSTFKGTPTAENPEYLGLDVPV
Method: An experiment to measure the activity of the compounds of the present invention against HER mutant enzymes was performed as follows using the HTRF system sold by Cisbio. For the HER2 mutant enzyme, HER2 A775_G776insYVMA mutant enzyme, a recombinant protein provided by Carna Biosciences was purchased and used.
as §5, with “performed using with ATP at” for “performed using ATP at”, “substrate labeled biotin at” for “substrate labeled with biotin at”, “against the HER2 A775_G776insYVMA mutant activity was” for “against the EGFR activity was”, “μL of a HER2 A775_G776insYVMA mutant enzyme” for “μL of an EGFR mutant enzyme”
as §6

SMILES | IC50 (Ba/F3 EGFR del19) | IC50 (Ba/F3 EGFR del19/T790M) | IC50 [1] | IC50 (Ba/F3 EGFR L858R) | IC50 (Ba/F3 EGFR L858R/T790M) | IC50 [2] | IC50 (EGFR A763_Y764insFHEA) | IC50 [3] | IC50 (HER2 A775_G776insYVMA)
CCC(=O)N1CCc2cccc(Nc3nc(Nc4ccc(N5CCC(N6CCN(C)CC6)CC5)cc4OC)ncc3Cl)c21 [Example 14, 1-(7-((5-chloro-2-((2-methoxy-4-(4-(4-methylpiperazin-1-yl)piperidin-1-yl)phenyl)amino)pyrimidin-4-yl)amino)indolin-1-yl)propan-1-one] | < 100 nM | > 100 nM | > 100 nM | > 100 nM | > 100 nM | > 100 nM | > 100 nM | > 100 nM | > 100 nM
COc1cc(N2CCC(N3CCN(C)CC3)CC2)ccc1Nc1ncc(Cl)c(Nc2cccc3c2N(C(C)=O)CCC3)n1 [Example 15, 1-(8-((5-chloro-2-((2-methoxy-4-(4-(4-methylpiperazin-1-yl)piperidin-1-yl)phenyl)amino)pyrimidin-4-yl)amino)-3,4-dihydroquinolin-1(2H)-yl)ethan-1-one] | > 100 nM | > 100 nM | > 100 nM | > 100 nM | > 100 nM | > 100 nM | > 100 nM | > 100 nM | 589 nM
COc1cc(N2CCC(N3CCN(C)CC3)CC2)ccc1Nc1ncc(Cl)c(Nc2cccc3c2N(C(C)=O)CC3)n1 [Example 12, 1-(7-((5-chloro-2-((2-methoxy-4-(4-(4-methylpiperazin-1-yl)piperidin-1-yl)phenyl)amino)pyrimidin-4-yl)amino)indolin-1-yl)ethan-1-one] | < 100 nM | > 100 nM | > 100 nM | > 100 nM | > 100 nM | > 100 nM | 178 nM | > 100 nM | 25 nM
CCS(=O)(=O)N1CCc2cccc(Nc3nc(Nc4ccc(N5CCC(N6CCN(C)CC6)CC5)cc4OC)ncc3Cl)c21 [Example 13, 5-chloro-N4-(1-(ethylsulfonyl)indolin-7-yl)-N2-(2-methoxy-4-(4-(4-methylpiperazin-1-yl)piperidin-1-yl)phenyl)pyrimidine-2,4-diamine] | < 100 nM | > 100 nM | > 100 nM | > 100 nM | > 100 nM | > 100 nM | 91 nM | > 100 nM | 26 nM

Further lines, results first:

IC50 (Ba/F3 EGFR del19) | IC50 (Ba/F3 EGFR del19/T790M) | IC50 [1] | IC50 (Ba/F3 EGFR L858R) | IC50 (Ba/F3 EGFR L858R/T790M) | IC50 [2] | IC50 (EGFR A763_Y764insFHEA) | IC50 [3] | IC50 (HER2 A775_G776insYVMA) | SMILES
< 100 nM | < 100 nM | > 100 nM | < 100 nM | > 100 nM | > 100 nM | 20 nM | > 100 nM | 4 nM | COc1cc(N2CCC(N3CCNCC3)CC2)ccc1Nc1ncc(Cl)c(Nc2cccc3c2N(S(C)(=O)=O)CC3)n1 [Example 17, 5-chloro-N2-(2-methoxy-4-(4-(piperazin-1-yl)piperidin-1-yl)phenyl)-N4-(1-(methylsulfonyl)indolin-7-yl)pyrimidine-2,4-diamine]
> 100 nM | > 100 nM | > 100 nM | > 100 nM | > 100 nM | > 100 nM | > 100 nM | > 100 nM | > 100 nM | CCC(=O)N1CCCc2cccc(Nc3nc(Nc4ccc(N5CCC(N6CCN(C)CC6)CC5)cc4OC)ncc3Cl)c21 [Example 16, 1-(8-((5-chloro-2-((2-methoxy-4-(4-(4-methylpiperazin-1-yl)piperidin-1-yl)phenyl)amino)pyrimidin-4-yl)amino)-3,4-dihydroquinolin-1(2H)-yl)propan-1-one]
